PMC6798786 (Brain Communications, 2019)
“Also recorded” adds a separate entry of the source. Read-outs that look alike come from different tables or passages of the source.

Key:
[1] = tested on: scn1lab mutant zebrafish; assay: local field potential (LFP) electrophysiology, electrographic seizure events; type: in vivo, Danio rerio
Protocol: Using a glass micro-electrode positioned under an upright microscope, local field potential (LFP) recordings were obtained from forebrain or optic tectum structures, as described ([Baraban et al., 2005]). Agarose-embedded LFP recording sessions (10 min in duration) were obtained using Axoclamp software (Molecular Devices; Sunnyvale, CA, USA) and sampled at 1 kHz. Epileptiform events were identified post hoc. These were classified as multi-spike or poly-spike upward or downward membrane deflections greater than 3× baseline noise level and 150–250 ms in duration (interictal-like) or greater than 5× baseline noise, multi-spike and >500 ms in duration (ictal-like); both events were counted using threshold detection settings in Clampfit (Molecular Devices; Sunnyvale, CA, USA). Agarose-embedded larvae were continuously monitored for blood flow and heart rate using an Axiocam digital camera at video frame rate.
Monitoring electrographic brain activity to confirm seizure suppression is an essential assay to eliminate false positives from behavioural testing ([Griffin et al., 2018]). By placing a micro-electrode into a visually identified brain region of an agar-immobilized zebrafish larval, stable LFP recordings can be monitored for several hours ([Baraban, 2013]). At 5 days post-fertilization, LFP recordings of scn1Lab zebrafish larvae show an average of 250 abnormal electrographic seizure events during a 10 min recording epoch.

[2] = molecular target: T1, human 5-HT2BR (Homo sapiens, UniProt P41595); assay: radioligand binding (NIMH PDSP)
Protocol: (§1) All in vitro binding assay and Ki data studies were performed by the US National Institute of Mental Health Psychoactive Drug Screening Program (NIMH PDSP). For these studies, drugs were screened against recombinant, stably expressed human 5-HT2AR, 5-HT2BR, 5-HT2CR and H1, as described at https://pdspdb.unc.edu/pdspWeb/ ([Besnard et al., 2012]).

[3] = molecular target: human H1 (Homo sapiens, UniProt P35367); assay: radioligand binding (NIMH PDSP)
Protocol: as §1

[4] = tested on: scn1lab mutant zebrafish; assay: locomotion (mean swim velocity) seizure-like behaviour assay in scn1lab mutant zebrafish larvae; type: in vivo, Danio rerio; settings: for change in vivo at 100 µM / change in vivo at 250 µM: Danio rerio; for effect on seizure-like swim behaviour, commercially available compounds: three concentrations
Protocol: For locomotion studies, zebrafish larvae (5 days post-fertilization) were placed into a single well of a clear flat-bottomed 96-well microplate containing embryo media. Sex determination is not possible at this stage of development. All drug screening experiments were conducted in an unbiased manner by investigators blinded to the test compounds and all files coded for post hoc analysis. The 96-well plate containing larvae was then placed inside a DanioVision box where they were allowed to acclimate (20 min; room temperature). EthoVision XT software (DanioVision, Noldus Information Technology) was used to obtain locomotion plots (10 min in duration). Seizure scoring was performed, as described ([Baraban et al., 2005]). All locomotion plots were analysed for distance travelled (in millimetres) and mean velocity (in millimetres per second). After 90 min of drug exposure larvae were examined for toxic side-effects. Compounds that decreased or stopped the larva heartbeat, or reduced or eliminated the escape response when touched, were considered toxic.
For behaviour analysis, the threshold for a change in mean swim velocity ≥40% is considered significant (>1.5× SD of 250 control treated scn1lab). Unless otherwise indicated, all data in this manuscript are presented as the mean ± standard error of the mean. […] Statistically significant differences are indicated with asterisks (*P < 0.05; **P < 0.01; ***P < 0.001). […]

[5] = molecular target: T2, human 5-HT2CR (Homo sapiens, UniProt P28335)
T2 sequence (P28335 33-458): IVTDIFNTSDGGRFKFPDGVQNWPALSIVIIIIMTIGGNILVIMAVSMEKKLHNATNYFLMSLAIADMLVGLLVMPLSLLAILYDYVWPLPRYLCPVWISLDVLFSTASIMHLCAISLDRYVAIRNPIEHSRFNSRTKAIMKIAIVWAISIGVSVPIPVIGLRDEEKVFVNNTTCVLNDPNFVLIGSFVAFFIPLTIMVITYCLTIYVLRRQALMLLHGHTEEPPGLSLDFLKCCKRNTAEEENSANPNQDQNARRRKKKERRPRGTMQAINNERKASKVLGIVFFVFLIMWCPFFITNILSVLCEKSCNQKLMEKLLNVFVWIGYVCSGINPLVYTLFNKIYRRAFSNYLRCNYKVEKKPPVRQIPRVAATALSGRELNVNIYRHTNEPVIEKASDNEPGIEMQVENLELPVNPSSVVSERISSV

[6] = molecular target: human 5-HT2AR (Homo sapiens, UniProt P28223); settings: read-out: 5-HT2AR (nM), Table S3, cited from earlier work
[7] = molecular target: T1, human 5-HT2BR; settings: commercially available compounds known to bind 5-HT2BR; ref Roth et al., 2000; read-out: 5-HT2BR (nM), Table S3; cited from earlier work
[8] = tested on: human 5-HT2R; assay: radioligand binding (NIMH PDSP), any 5-HT2R subtype; settings: 5-HT2AR, 5-HT2BR, 5-HT2CR
Protocol: as §1
Additionally, 5-HT2R modulating compounds exert antiepileptic activity in both preclinical ([Sourbron et al., 2016]; [Griffin et al., 2017]) and clinical studies ([Griffin et al., 2017]; [Schoonjans et al., 2017]; [Kauppila et al., 2018]). […] […].

[9] = read-out: % change in velocity, individual larva 1 (heat map)
[10] = read-out: % change in velocity, individual larva 2 (heat map)
[11] = read-out: % change in velocity, individual larva 3 (heat map)
[12] = read-out: % change in velocity, individual larva 4 (heat map)
[13] = read-out: % change in velocity, individual larva 5 (heat map)
[14] = read-out: % change in velocity, individual larva 6 (heat map)
[15] = read-out: mean velocity change from six fish, Trial 1
[16] = read-out: mean velocity change from six fish, Trial 2
[17] = commercially available compounds known to bind 5-HT2BR; ref Roth et al., 2000; read-out: 5-HT2CR (nM), Table S3; cited from earlier work

T1 sequence (P41595 whole entry): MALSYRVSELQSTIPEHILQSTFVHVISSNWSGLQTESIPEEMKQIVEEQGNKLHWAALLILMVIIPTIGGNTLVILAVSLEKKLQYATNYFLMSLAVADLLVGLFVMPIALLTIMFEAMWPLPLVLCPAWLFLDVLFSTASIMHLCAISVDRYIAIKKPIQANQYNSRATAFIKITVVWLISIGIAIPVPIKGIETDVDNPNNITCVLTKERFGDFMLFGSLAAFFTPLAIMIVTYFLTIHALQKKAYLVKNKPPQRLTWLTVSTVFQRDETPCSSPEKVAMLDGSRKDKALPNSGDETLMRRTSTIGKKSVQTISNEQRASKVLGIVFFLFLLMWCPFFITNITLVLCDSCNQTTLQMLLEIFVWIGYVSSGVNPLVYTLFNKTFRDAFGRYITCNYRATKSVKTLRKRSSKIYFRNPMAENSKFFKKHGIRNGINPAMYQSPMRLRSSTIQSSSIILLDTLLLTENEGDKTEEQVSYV
Sequence of human 5-HT2AR (P28223 whole entry): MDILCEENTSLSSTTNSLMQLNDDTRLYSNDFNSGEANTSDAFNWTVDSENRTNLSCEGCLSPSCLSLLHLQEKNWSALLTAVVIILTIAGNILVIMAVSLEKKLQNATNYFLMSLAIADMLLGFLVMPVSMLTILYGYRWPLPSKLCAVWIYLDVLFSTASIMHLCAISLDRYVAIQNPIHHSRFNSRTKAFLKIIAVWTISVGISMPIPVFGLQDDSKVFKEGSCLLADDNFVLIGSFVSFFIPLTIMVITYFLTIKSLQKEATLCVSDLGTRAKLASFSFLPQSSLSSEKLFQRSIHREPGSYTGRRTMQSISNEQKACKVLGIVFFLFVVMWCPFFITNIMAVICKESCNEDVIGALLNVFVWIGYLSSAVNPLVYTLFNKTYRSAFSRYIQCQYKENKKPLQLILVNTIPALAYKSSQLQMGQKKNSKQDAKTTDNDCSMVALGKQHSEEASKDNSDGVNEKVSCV
Sequence of human H1 (P35367 whole entry): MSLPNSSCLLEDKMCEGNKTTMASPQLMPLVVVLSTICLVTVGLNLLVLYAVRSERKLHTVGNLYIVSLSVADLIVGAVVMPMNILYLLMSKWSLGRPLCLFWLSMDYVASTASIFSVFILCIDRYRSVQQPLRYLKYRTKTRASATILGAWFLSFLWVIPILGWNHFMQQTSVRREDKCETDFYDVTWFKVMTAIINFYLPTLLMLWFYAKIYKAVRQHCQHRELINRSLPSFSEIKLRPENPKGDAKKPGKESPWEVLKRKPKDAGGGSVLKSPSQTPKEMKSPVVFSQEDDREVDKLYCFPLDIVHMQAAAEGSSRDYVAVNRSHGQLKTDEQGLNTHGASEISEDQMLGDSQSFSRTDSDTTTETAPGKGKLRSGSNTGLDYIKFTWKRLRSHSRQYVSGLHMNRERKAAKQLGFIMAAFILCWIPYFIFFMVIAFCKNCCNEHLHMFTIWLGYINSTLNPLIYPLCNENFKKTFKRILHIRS

| SMILES | change in vivo at 100 µM [4, 9] | change in vivo at 250 µM [4, 9] | change in vivo at 100 µM [4, 10] | change in vivo at 250 µM [4, 10] | change in vivo at 100 µM [4, 11] | change in vivo at 250 µM [4, 11] | change in vivo at 100 µM [4, 12] | change in vivo at 250 µM [4, 12] | change in vivo at 100 µM [4, 13] | change in vivo at 250 µM [4, 13] | change in vivo at 100 µM [4, 14] | change in vivo at 250 µM [4, 14] | change in vivo at 100 µM [4, 15] | change in vivo at 250 µM [4, 15] | change in vivo at 100 µM [4, 16] | change in vivo at 250 µM [4, 16] | Ki [5, 17] | Ki [6] | effect on seizure-like swim behaviour, commercially available compounds ([4]; 30 and 90 min exposure) | Ki [7] | also measured |
| --- | --- | --- | --- | --- | --- | --- | --- | --- | --- | --- | --- | --- | --- | --- | --- | --- | --- | --- | --- | --- | --- |
| c1ccc2c(c1)nc(CN1CCCC1)n2CC1CCCCC1 [Compound 4] | -85.7% | -93.5% | -30.6% | -100% | -85.6% | -100% | -68.3% | -67.4% | -79.4% | -83.7% | 146% | -100% | -41.7% | -93.4% | -44.8% | -100% |  |  |  |  | effect on electrographic seizure activity (LFP) ([1]; 100 µM, 10 min recording epoch): significant suppression of electrographic seizure activity; Ki [2]: 612 nM; Ki [3]: 153 nM; effect on seizure-like swim behaviour, initial library screen ([4]; 100 µM or 250 µM, UCSF-synthesized compound): effective in suppressing; effect on seizure-like swim behaviour, retest of independently synthesized compound ([4]; 10, 50, 100 and 250 µM, 30 and 90 min exposure): reduced the high-velocity seizure-like swim behaviour |
| C[C@H](N)Cn1ccc2cc(F)c(Cl)cc21 [Ro 60-0175] |  |  |  |  |  |  |  |  |  |  |  |  |  |  |  |  | 9.1 nM | 37.2 nM | borderline effective | 4.3 nM |  |
| CC(N)Cc1cccc(C(F)(F)F)c1.Cl (single isomer, unassigned; (+)) [norfenfluramine, (+)-Norfenfluramine hydrochloride, reference compound] |  |  |  |  |  |  |  |  |  |  |  |  |  |  |  |  | 306 nM | 194 nM | suppressed convulsive swim behaviours in a concentration-dependent manner; also recorded: restore the swimming behaviour or scn1lab mutant larvae to wild-type levels | 18 nM | larvae with reduced spontaneous seizure events (LFP) ([1]; n = 8): 5 out of 8 |
| C=CCN1C[C@H](C(=O)N(CCCN(C)C)C(=O)NCC)C[C@@H]2c3cccc4[nH]cc(c34)C[C@H]21 [cabergoline, Cabergoline] |  |  |  |  |  |  |  |  |  |  |  |  |  |  |  |  |  |  |  |  | Ki ([5]; read-out: 5-HT2CR (nM), Table S3; commercially available compounds known to bind 5-HT2BR; ref Roth et al., 2000; cited from earlier work): 692 nM; Ki ([6]; commercially available compounds known to bind 5-HT2BR, ref Roth et al., 2000): 6.17 nM; effect on convulsive swim behaviour at 250 µM ([4]; 250 µM): significantly reduced convulsive swim behaviour |
| c1cn(CC2CCCCC2)c(CN2CCCC2)n1 [Compound 21] | 17.5% | 52.2% | -5.2% | -11.5% | 11.1% | 80.9% | 8.5% | -44.9% | 13.2% | 37.8% | 24% | -14.2% | 12.5% | 6.5% | 12.5% | 6.5% |  |  |  |  | binding to any human 5-HT2R [8]: no significant binding |
